How the values were obtained:
[1] = tested on: B16F10 cells; details: cited from earlier work
[2] = tested on: AMP-activated protein kinase (AMPK); test: AMPK expression in differentiated C2C12 cells; assay type: cell-based; details: C2C12, positive control 90 μg/mL
Procedure: In order to confirm the effect of 5-PF-Q on the expression of AMP-activated protein kinase (AMPK), differentiated muscle cell C2C12 cells were treated with 5-PF-Q at 10 μg/mL, 50 μg/mL, and 100 μg/mL for 24 hours, respectively, as shown in FIG. 7 (10% gel, 20 μg PTN, 1° ab pAMPK 1:3,000, tAMPK 1:1,000/2° ab 1:4,000).

[3] = tested on: Ob/Ob mice; test: antidiabetic effect in Ob/Ob mice; assay type: in vivo
Procedure: In order to confirm the antidiabetic effect of 5-PF-Q, the changes, due to the administration of 5-PF-Q, in body weight, food intake, reduction of blood sugar levels, toxicity, and insulin resistance were measured.
The mice were divided into group A (weight 35 g or more) and group B (weight 35 g or less) based on body weight. According to the flowchart below, each group was assigned to a metformin (200 mg/kg) administration group (positive control group) and a 5-PF-Q (15 mg/kg) administration group (experimental group) and administered orally for 3 weeks. After the 3-week administration period, blood sugar levels were measured by performing an oral glucose tolerance test (OGTT), and the mice were sacrificed 3 weeks thereafter. OGTT was also performed at the same time point for the Ob/Ob vehicle group (negative control group) that was not administered with the compound, and non-diabetic C57BL/6 mice, and they were sacrificed.

Structure (SMILES)	cytotoxicity [1]	inhibition of melanin production IC50 [1] [mg/L]	expression of AMPK (pAMPK/tAMPK) [2]	insulin resistance compared to Ob/Ob vehicle group ([3]; Ob/Ob mice, 200 mg/kg)	OGTT blood sugar reduction pattern ([3]; group A (35 g or more), 200 mg/kg oral for 3 weeks)
CCCCCc1ccc(C=O)o1 [5-pentyl-2-furaldehyde]	without cytotoxicity	8.4	–	–	–
CN(C)C(=N)N=C(N)N [metformin]	–	–	clearly observed	tendency to improve insulin resistance	blood sugar reduction pattern was similar

Reference: patent publication US20250289795A1, “METHOD FOR PREPARATION OF COMPOUND POSSESSING 5-PENTYLFURFURAL (5-PF) STRUCTURE AND USE THEREOF” (FUGENBIO CO., LTD., priority 2022, published 2025)
